Patent US20130244255A1, “ANTIBODIES DIRECTED TO GPNMB AND USES THEREOF” (priority 2006, published 2013)

Experiments:
[1] = molecular target: T1, CG56972 (Homo sapiens, UniProt Q14956); test: Flow cytometry of CR011 binding to cell surface CG56972/GPNMB (GMR)
T1 construct: endogenous in cells; host or cells: SK-MEL-2, XF-498, U-118-MG, SNB-78, SF-539, SF-268 and further human lines (ATCC / NCI)
T1 sequence (Q14956 23-572): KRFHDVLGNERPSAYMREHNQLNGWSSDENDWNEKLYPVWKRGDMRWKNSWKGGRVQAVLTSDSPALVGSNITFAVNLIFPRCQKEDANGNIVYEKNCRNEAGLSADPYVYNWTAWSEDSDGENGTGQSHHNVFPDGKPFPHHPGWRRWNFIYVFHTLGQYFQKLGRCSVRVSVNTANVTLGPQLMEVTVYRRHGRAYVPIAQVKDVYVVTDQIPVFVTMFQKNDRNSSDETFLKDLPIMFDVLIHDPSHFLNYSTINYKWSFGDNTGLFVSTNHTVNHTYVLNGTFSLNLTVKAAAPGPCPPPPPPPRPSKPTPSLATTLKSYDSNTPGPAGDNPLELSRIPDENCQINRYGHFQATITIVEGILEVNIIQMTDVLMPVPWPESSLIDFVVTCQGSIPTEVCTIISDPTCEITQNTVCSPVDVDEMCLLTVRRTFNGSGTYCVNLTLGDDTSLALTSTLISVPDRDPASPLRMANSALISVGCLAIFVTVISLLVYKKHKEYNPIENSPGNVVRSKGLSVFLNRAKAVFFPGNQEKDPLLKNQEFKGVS
Procedure: (§1) Quantitative analysis of GPNMB expression on the cell surface of cell lines was determined by flow cytometry. […] Cells were fixed in 1% paraformaldehyde/PBS and examined on a Becton Dickinson FACSCalibur flow cytometer. Data analysis was performed with Becton Dickinson Cell Quest software version 3.3 and the geometric mean fluorescence intensity ratio (GMR) was determined for each cell type.
as §1, with “CG56972” for “GPNMB”, “the” for “the cell”, “cytometry (FACS).” for “cytometry.”

[2] = tested on: TK10; test: Anti-GPNMB antibody mediated indirect cell killing (saporin secondary conjugate, colony count); format: cell-based; conditions: antibody at 50 ng/mL with goat anti-human IgG-saporin 100 ng/well
Procedure: UACC-62, a GPNMB antigen expressing cell line, and TK10, a non-expressing cell line were plated onto flat bottom 96-well tissue culture plates (Becton Dickinson, Franklin Lakes, N.J., USA) at a density of 3000 cells per well. Once the cells reached ˜25% confluency, 100 ng/well of secondary antibody-toxin conjugate (goat anti-human IgG-saporin; Advanced Targeting Systems, San Diego, USA, HUM-ZAP; cat #IT-22) was added. […] An anti-EGFR monoclonal antibody (MS-269-PABX, NeoMarkers, Fremont, Calif., USA) was used as a positive primary antibody control. Chemotherapy reagent 5-FU at 600 uM was used as a positive reagent control. On day 5, the cells were trypsinized, transferred to 6-well tissue culture plates and incubated at 37° C. Plates were examined daily and between 8-10 days, all plates were Giemsa stained and colonies were counted.

[3] = tested on: CG56972-expressing cancer cells; test: Growth inhibition by CR011 with saporin-conjugated secondary antibody; format: cell-based, human; conditions: data not shown
[4] = tested on: CG56972-expressing cancer cell lines; test: Growth of CG56972-expressing cells with naked CR011; format: cell-based, human; conditions: used directly, unconjugated
[5] = tested on: HEK293 cells; test: Clonogenic assay, HEK293 cells transfected with GPNMB or empty vector; format: cell-based, human; conditions: 96 hours treatment
Procedure: Cells were plated in 96-well plates and allowed to recover overnight. […] The cells were then transferred into 6-well plates and allowed to form colonies. Colonies were stained with Giemsa stain (Sigma) and counted. The surviving cell fractions were calculated based upon the ratio of the treated sample and the untreated control. The results were expressed as a percentage of control using GraphPad Prism Version 4 software.
Immunoblot (FIG. 9A) and FACS (FIG. 9B) analyses confirmed that GPNMB was expressed in GPNMB/plasmid transfected cells.

[6] = tested on: SK-MEL-2 human melanoma xenograft; test: SK-MEL-2 human melanoma xenograft in athymic mice; format: in vivo; conditions: observation period >200 days
[7] = tested on: SK-MEL-2 melanoma xenografts; test: Dosing interval (schedule dependency) study, SK-MEL-2 xenograft; format: in vivo, athymic mice
Procedure: Nota bene: Please note that, although all 5 sets of groups in this experiment (e.g., groups 5, 6, and 7 represent one set and received 32, 8, and 2 mg/kg cumulative dose, respectively) received the same cumulative doses, the first set receiving the “bolus dose” is different from the other 4 sets. The Cmax for each group in the “bolus” set was likely four-fold higher that the Cmax for the other 4 sets (see section on pharmacokinetics for dose-linearity after i.v. administration), since 4 sets of groups received 4 treatments, whereas the first set received only one “bolus” treatment (see column 7, Table 49 below).
The aggregate responses for each set of groups, where a set is defined as 3 groups of graduated dosage levels but one dosage interval (groups 5, 6, and 7 represent 1 set, all of which were treated with a dosing interval of 1 day) are shown in FIG. 7. […] However, this effect was not significant (P<0.2904).
The original design of this study was expanded to include an examination of the effects of various dosage levels. For each set, one group of animals received a cumulative dose of 8 mg/kg, which, from previous studies employing a dosing interval of 4 days, provided consistent therapeutic effects leading to long-term tumor-free animals. In addition, cumulative doses of 2 mg/kg and 32 mg/kg were employed.

Substance	surface staining above control mAb background ([1]; SF-268, CR011 10 μg/mL)	surface staining above isotype control mAb background ([1]; SF-539, CR011 10 μg/mL)	cell surface staining (in words) ([1]; SK-MEL-2)	surface staining above isotype control mAb background ([1]; SNB-78, CR011 10 μg/mL)	surface staining above isotype control mAb background ([1]; U-118-MG, CR011 10 μg/mL)	surface staining above isotype control mAb background ([1]; XF-498, CR011 10 μg/mL)	cell death in GPNMB negative TK10 cells [2]	growth inhibition with saporin-conjugated secondary antibody (in words) [3]	effect of naked antibody on CG56972 expressing cells (in words) [4]	effect of naked antibody on CG56972 expressing cells (in words) ([4]; listed as CR011 IgG2 mAb)	sensitivity of GPNMB-expressing HEK293 cells vs control cells to growth-inhibition [5]	re-growth of completely regressed tumors [6]	complete regressors ([7]; 2 mg/kg cumulative dose) [%]	complete regressions ([7]; 8 mg/kg cumulative dose, all dosing intervals (28/30)) [%]	complete regressions ([7]; cumulative dose of 32 mg/kg, all dosing intervals (30 test animals)) [%]	schedule dependency of anti-tumor effects ([7]; dosing intervals 0, 1, 4, 8, 16 days)
CR011: fully human monoclonal antibody that specifically binds to GPNMB; VH SEQ ID NO: 20, VL SEQ ID NO: 29	around 1.5 fold	at least 1.5 fold	strong cell surface staining	at least 1.5 fold	at least 1.5 fold	at least 1.5 fold	less than 24%	could specifically inhibit the growth	did not inhibit the growth	no effect						
CR011-vcMMAE: CR011 conjugated to monomethyl auristatin E through a protease cleavable valine-citrulline linker; approx. 4 drugs per antibody											more sensitive	did not re-grow	13	93	100	not schedule-dependent
